From patent publication US20230295200A1 (REGENTS OF THE UNIVERSITY OF MICHIGAN, priority 2022, published 2023)

The compounds below were run against T1, STAT6 protein (Homo sapiens, UniProt P42226) (assay: Fluorescence polarization (FP) binding assay, STAT6). Details: FP competition, 5 nM fluorescein-labeled tracer, 200 nM protein, PBS pH7.4; read-out: Binding STAT6.
T1 sequence (P42226 1-847): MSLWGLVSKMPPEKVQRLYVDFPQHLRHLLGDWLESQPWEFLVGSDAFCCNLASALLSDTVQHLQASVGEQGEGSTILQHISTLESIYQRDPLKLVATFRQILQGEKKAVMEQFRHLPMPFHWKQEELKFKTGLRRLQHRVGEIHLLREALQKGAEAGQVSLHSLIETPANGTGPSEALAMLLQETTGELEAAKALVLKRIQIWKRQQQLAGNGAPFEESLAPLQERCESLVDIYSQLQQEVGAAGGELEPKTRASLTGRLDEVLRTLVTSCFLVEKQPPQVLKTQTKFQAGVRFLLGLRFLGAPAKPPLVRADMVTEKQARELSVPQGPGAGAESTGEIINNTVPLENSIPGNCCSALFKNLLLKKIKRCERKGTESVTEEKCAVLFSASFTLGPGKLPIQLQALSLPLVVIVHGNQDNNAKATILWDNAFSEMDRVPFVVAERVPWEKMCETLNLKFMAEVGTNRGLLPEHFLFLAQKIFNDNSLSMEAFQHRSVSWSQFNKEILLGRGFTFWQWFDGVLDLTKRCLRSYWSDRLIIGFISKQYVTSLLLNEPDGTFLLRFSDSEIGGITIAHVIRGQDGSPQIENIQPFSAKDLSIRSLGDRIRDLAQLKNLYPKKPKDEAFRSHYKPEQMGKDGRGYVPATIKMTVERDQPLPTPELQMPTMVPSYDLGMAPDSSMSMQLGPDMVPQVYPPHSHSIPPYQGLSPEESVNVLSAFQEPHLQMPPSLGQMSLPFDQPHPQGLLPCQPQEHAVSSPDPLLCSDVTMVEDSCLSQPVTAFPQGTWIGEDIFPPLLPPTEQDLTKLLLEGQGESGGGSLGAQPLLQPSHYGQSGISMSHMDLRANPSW
In short: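 Fluorescence polarization is read after STAT5 or STAT6 protein (200 nM) and a fluorescein-labeled tracer (5 nM) equilibrate for 1 h at room temperature in DTT-containing PBS pH 7.4 with BGG and Tween-20. Inhibition constants are obtained by nonlinear curve fitting.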

SMILES | Ki [µM]
O=C(N[C@@H](Cc1cccnc1)C(=O)N1CCC[C@H]1C(=O)N1CCO[C@H](c2ccccc2)C1)c1cc2cc(C(F)(F)P(=O)(O)O)ccc2s1 [Compound 271, (difluoro(2-(((S)-1-oxo-1-((S)-2-((R)-2-phenylmorpholine-4-carbonyl)pyrrolidin-1-yl)-3-(pyridin-3-yl)propan-2-yl)carbamoyl)benzo[b]thiophen-5-yl)methyl)phosphonic acid] | 0.1 to 1
CN(C)CCC[C@H](NC(=O)c1cc2cc(C(F)(F)P(=O)(O)O)ccc2s1)C(=O)N1CCC[C@H]1C(=O)N1CCO[C@H](c2ccccc2)C1 [Compound 274, ((2-(((S)-5-(dimethylamino)-1-oxo-1-((S)-2-((R)-2-phenylmorpholine-4-carbonyl)pyrrolidin-1-yl)pentan-2-yl)carbamoyl)benzo[b]thiophen-5-yl)difluoromethyl)phosphonic acid] | 0.1 to 1
CC(C)(C)c1ccc(C[C@H](NC(=O)c2cc3cc(C(F)(F)P(=O)(O)O)ccc3s2)C(=O)N2CCC[C@H]2C(=O)N2CCO[C@H](c3ccccc3)C2)cc1 [Compound 277, ((2-(((S)-3-(4-(tert-butyl)phenyl)-1-oxo-1-((S)-2-((R)-2-phenylmorpholine-4-carbonyl)pyrrolidin-1-yl)propan-2-yl)carbamoyl)benzo[b]thiophen-5-yl)difluoromethyl)phosphonic acid] | < 0.1
O=C(N[C@@H](Cc1ccc(F)c(F)c1)C(=O)N1CCC[C@H]1C(=O)N1CCO[C@H](c2ccccc2)C1)c1cc2cc(C(F)(F)P(=O)(O)O)ccc2s1 [Compound 278, ((2-(((S)-3-(3,4-difluorophenyl)-1-oxo-1-((S)-2-((R)-2-phenylmorpholine-4-carbonyl)pyrrolidin-1-yl)propan-2-yl)carbamoyl)benzo[b]thiophen-5-yl)difluoromethyl)phosphonic acid] | 0.1 to 1
O=C(N[C@@H](Cc1cccc([N+](=O)[O-])c1)C(=O)N1CCC[C@H]1C(=O)N1CCO[C@H](c2ccccc2)C1)c1cc2cc(C(F)(F)P(=O)(O)O)ccc2s1 [Compound 282, (difluoro(2-(((S)-3-(3-nitrophenyl)-1-oxo-1-((S)-2-((R)-2-phenylmorpholine-4-carbonyl)pyrrolidin-1-yl)propan-2-yl)carbamoyl)benzo[b]thiophen-5-yl)methyl)phosphonic acid] | < 0.1
O=C(N[C@@H](Cc1ccc2ccccc2c1)C(=O)N1CCC[C@H]1C(=O)N1CCO[C@H](c2ccccc2)C1)c1cc2cc(C(F)(F)P(=O)(O)O)ccc2s1 [Compound 285, (difluoro(2-(((S)-3-(naphthalen-2-yl)-1-oxo-1-((S)-2-((R)-2-phenylmorpholine-4-carbonyl)pyrrolidin-1-yl)propan-2-yl)carbamoyl)benzo[b]thiophen-5-yl)methyl)phosphonic acid] | 0.1 to 1
O=C(N[C@@H](Cc1nc2ccccc2s1)C(=O)N1CCC[C@H]1C(=O)N1CCO[C@H](c2ccccc2)C1)c1cc2cc(C(F)(F)P(=O)(O)O)ccc2s1 [Compound 286, ((2-(((S)-3-(benzo[d]thiazol-2-yl)-1-oxo-1-((S)-2-((R)-2-phenylmorpholine-4-carbonyl)pyrrolidin-1-yl)propan-2-yl)carbamoyl)benzo[b]thiophen-5-yl)difluoromethyl)phosphonic acid] | 0.1 to 1
O=C(N[C@@H](Cc1cccs1)C(=O)N1CCC[C@H]1C(=O)N1CCO[C@H](c2ccccc2)C1)c1cc2cc(C(F)(F)P(=O)(O)O)ccc2s1 [Compound 287, (difluoro(2-(((S)-1-oxo-1-((S)-2-((R)-2-phenylmorpholine-4-carbonyl)pyrrolidin-1-yl)-3-(thiophen-2-yl)propan-2-yl)carbamoyl)benzo[b]thiophen-5-yl)methyl)phosphonic acid] | 0.1 to 1
O=C(N[C@@H](CCCc1ccccc1)C(=O)N1CCC[C@H]1C(=O)N1CCO[C@H](c2ccccc2)C1)c1cc2cc(C(F)(F)P(=O)(O)O)ccc2s1 [Compound 289, (difluoro(2-(((S)-1-oxo-5-phenyl-1-((S)-2-((R)-2-phenylmorpholine-4-carbonyl)pyrrolidin-1-yl)pentan-2-yl)carbamoyl)benzo[b]thiophen-5-yl)methyl)phosphonic acid] | < 0.1

Second part, the compound after the results:

Ki [µM] | SMILES
0.1 to 1 | CCCC[C@H](NC(=O)c1cc2cc(C(F)(F)P(=O)(O)O)ccc2s1)C(=O)N1CCC[C@H]1C(=O)N1CCO[C@H](c2ccccc2)C1 [Compound 272, (difluoro(2-(((S)-1-oxo-1-((S)-2-((R)-2-phenylmorpholine-4-carbonyl)pyrrolidin-1-yl)hexan-2-yl)carbamoyl)benzo[b]thiophen-5-yl)methyl)phosphonic acid]
0.1 to 1 | O=C(N[C@@H](Cc1ccc(Br)cc1)C(=O)N1CCC[C@H]1C(=O)N1CCO[C@H](c2ccccc2)C1)c1cc2cc(C(F)(F)P(=O)(O)O)ccc2s1 [Compound 273, ((2-(((S)-3-(4-bromophenyl)-1-oxo-1-((S)-2-((R)-2-phenylmorpholine-4-carbonyl)pyrrolidin-1-yl)propan-2-yl)carbamoyl)benzo[b]thiophen-5-yl)difluoromethyl)phosphonic acid]
0.1 to 1 | CN(C)CC[C@H](NC(=O)c1cc2cc(C(F)(F)P(=O)(O)O)ccc2s1)C(=O)N1CCC[C@H]1C(=O)N1CCO[C@H](c2ccccc2)C1 [Compound 275, ((2-(((S)-4-(dimethylamino)-1-oxo-1-((S)-2-((R)-2-phenylmorpholine-4-carbonyl)pyrrolidin-1-yl)butan-2-yl)carbamoyl)benzo[b]thiophen-5-yl)difluoromethyl)phosphonic acid]
0.1 to 1 | NC(=O)CC[C@H](NC(=O)c1cc2cc(C(F)(F)P(=O)(O)O)ccc2s1)C(=O)N1CCC[C@H]1C(=O)N1CCO[C@H](c2ccccc2)C1 [Compound 276, ((2-(((S)-5-amino-1,5-dioxo-1-((S)-2-((R)-2-phenylmorpholine-4-carbonyl)pyrrolidin-1-yl)pentan-2-yl)carbamoyl)benzo[b]thiophen-5-yl)difluoromethyl)phosphonic acid]
0.1 to 1 | O=C(N[C@H](C(=O)N1CCC[C@H]1C(=O)N1CCO[C@H](c2ccccc2)C1)C1CCCCC1)c1cc2cc(C(F)(F)P(=O)(O)O)ccc2s1 [Compound 279, ((2-(((S)-1-cyclohexyl-2-oxo-2-((S)-2-((R)-2-phenylmorpholine-4-carbonyl)pyrrolidin-1-yl)ethyl)carbamoyl)benzo[b]thiophen-5-yl)difluoromethyl)phosphonic acid]
< 0.1 | NCCC[C@H](NC(=O)c1cc2cc(C(F)(F)P(=O)(O)O)ccc2s1)C(=O)N1CCC[C@H]1C(=O)N1CCO[C@H](c2ccccc2)C1 [Compound 280, ((2-(((S)-5-amino-1-oxo-1-((S)-2-((R)-2-phenylmorpholine-4-carbonyl)pyrrolidin-1-yl)pentan-2-yl)carbamoyl)benzo[b]thiophen-5-yl)difluoromethyl)phosphonic acid]
< 0.1 | N#Cc1cccc(C[C@H](NC(=O)c2cc3cc(C(F)(F)P(=O)(O)O)ccc3s2)C(=O)N2CCC[C@H]2C(=O)N2CCO[C@H](c3ccccc3)C2)c1 [Compound 281, ((2-(((S)-3-(3-cyanophenyl)-1-oxo-1-((S)-2-((R)-2-phenylmorpholine-4-carbonyl)pyrrolidin-1-yl)propan-2-yl)carbamoyl)benzo[b]thiophen-5-yl)difluoromethyl)phosphonic acid]
0.1 to 1 | Cc1cccc(C[C@H](NC(=O)c2cc3cc(C(F)(F)P(=O)(O)O)ccc3s2)C(=O)N2CCC[C@H]2C(=O)N2CCO[C@H](c3ccccc3)C2)c1 [Compound 283, (difluoro(2-(((S)-1-oxo-1-((S)-2-((R)-2-phenylmorpholine-4-carbonyl)pyrrolidin-1-yl)-3-(m-tolyl)propan-2-yl)carbamoyl)benzo[b]thiophen-5-yl)methyl)phosphonic acid]
0.1 to 1 | COc1ccc(C[C@H](NC(=O)c2cc3cc(C(F)(F)P(=O)(O)O)ccc3s2)C(=O)N2CCC[C@H]2C(=O)N2CCO[C@H](c3ccccc3)C2)cc1 [Compound 284, (difluoro(2-(((S)-3-(4-methoxyphenyl)-1-oxo-1-((S)-2-((R)-2-phenylmorpholine-4-carbonyl)pyrrolidin-1-yl)propan-2-yl)carbamoyl)benzo[b]thiophen-5-yl)methyl)phosphonic acid]
0.1 to 1 | O=C(N[C@@H](CCc1ccccc1)C(=O)N1CCC[C@H]1C(=O)N1CCO[C@H](c2ccccc2)C1)c1cc2cc(C(F)(F)P(=O)(O)O)ccc2s1 [Compound 288, (difluoro(2-(((S)-1-oxo-4-phenyl-1-((S)-2-((R)-2-phenylmorpholine-4-carbonyl)pyrrolidin-1-yl)butan-2-yl)carbamoyl)benzo[b]thiophen-5-yl)methyl)phosphonic acid]
